Assay results: ChEMBL document CHEMBL1149494, “Synthesis and structure-activity relationships of retro bis-aminopyrrolidine urea (rAPU) derived small-molecule antagonists of the melanin-concentrating hormone receptor-1 (MCH-R1). Part 2” (Bioorg Med Chem Lett, 2006)

Columns and labels:
Format in all cases: ADME, organism-based
Rattus norvegicus [1] = species on record: Rattus norvegicus; experiment: Drug level in rat plasma; settings: in vivo
Rattus norvegicus [2] = species on record: Rattus norvegicus; experiment: Drug level in rat brain; settings: in vivo
[3] = Ratio of drug level in rat brain against plasma; settings: brain and plasma, read-out: BPR

SMILES | Drug uptake (Rattus norvegicus [1]) [ng/g] | Drug uptake (Rattus norvegicus [2]) [ng/g] | Kp [3]
CCc1ccc(-c2ccc(C(=O)N(C)[C@H]3CCN(C(=O)N4CC[C@@H](NC5CCOCC5)C4)C3)cc2)cc1 | 14.5 | 5.1 | 0.4
CCc1ccc(-c2ccc(C(=O)N(C)[C@H]3CCN(C(=O)N4CC[C@@H](N(C)C5CCOCC5)C4)C3)s2)cc1 | 6.7 | 21.8 | 3.4
CCc1ccc(-c2ccc(C(=O)N(C)[C@H]3CCN(C(=O)N4CC[C@@H](N5CCCCC5)C4)C3)cc2)cc1 | 6.2 | 38.3 | 6.5
CCc1ccc(-c2ccc(C(=O)N(C)[C@H]3CCN(C(=O)N4CC[C@@H](NC5CCOCC5)C4)C3)s2)cc1 | 30.5 | 17.3 | 0.6
